# Legend:
# [1] = target: T1, rFphE (Staphylococcus aureus, UniProt Q2FDS6); experiment: FP-Cy5 active site labeling competition of recombinant protein, rFphE; format: binding
# T1 construct: otherwise full-length FphE (Uniprot ID Q2FDS6) and FphH (A0A0H2XJL0) proteins; His6 (3C-cleavable, pETNKI-his-3C-LIC vector) (N); made in house; E. coli is inferred from the pET28a-type vector, IPTG induction and LB/kanamycin
# T1 sequence (Q2FDS6 1-276): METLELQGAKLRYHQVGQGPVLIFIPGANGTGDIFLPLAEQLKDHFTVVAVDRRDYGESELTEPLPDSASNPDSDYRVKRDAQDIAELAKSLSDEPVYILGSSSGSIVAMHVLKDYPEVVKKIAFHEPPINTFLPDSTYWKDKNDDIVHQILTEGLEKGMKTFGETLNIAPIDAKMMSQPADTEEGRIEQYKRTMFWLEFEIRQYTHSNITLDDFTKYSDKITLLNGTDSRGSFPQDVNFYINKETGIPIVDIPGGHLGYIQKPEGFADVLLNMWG
# Experimental: (§1) For activity-based protein labeling experiments, 500 nM of rFphB, rFphE and rFphH in 1X PBS and 0.1% Triton–X were preincubated with different concentrations of inhibitors or DMSO for 2hr at room temperature, followed by adding 300 nM of fluorophosphonate (FP) alkyne and incubated for 30 min at room temperature. Next, 20 μL of the reaction volume were mixed with 2.16 μL of freshly prepared click mix (0.5 μL of 50 mM CuSO4 in H2O, 1.16 μL of 100 mM BTTAA in DMSO, and 0.5 μL of N3-Cy5 in DMSO) and 1.16 μL of 300 mM sodium ascorbate solution in H2O. Samples were incubated at 37°C for 30 min, boiled in SDS loading buffer and analyzed by SDS–PAGE. Cy5 fluorescence was imaged using the Cy5 channel on a Typhoon 9410 Imager (Amersham Biosciences).
# [2] = tested on: Pseudomonas aeruginosa; experiment: Bacterial growth inhibition assay, P. aeruginosa; format: cell-based
# Experimental: Bacteria were streaked from glycerol stocks onto agar plates and grown overnight at 37°C. A single colony was inoculated in either Tryptic Soy Broth (TSB; Sigma-Aldrich, St. Louis, MO; used for most species) or Bacto Brain Heart Infusion (BHI; Becton, Dickinson, and Company, Franklin Lakes, NJ; used for L. monocytogenes and S. pyogenes) and grown at 37°C shaking until mid-exponential phase (OD600 = 0.5), then diluted 1:10 in cation-adjusted Mueller Hinton Broth (MHB2, Millipore Sigma, Bedford, MA; used for most species) or BHI (for L. monocytogenes and S. pyogenes). 15 μl of this dilution was added to 135 μl of MHB2 or BHI in a flat-bottom clear 96-well plate for a starting inoculum of ~ 5 × 10^5 CFU/ml.
# For bacterial growth inhibition assay, wild-type S. aureus and transposon mutants (fphB::Tn, fphE::Tn and fphH::Tn) were grown with compounds at final concentrations ranging from 1–100 μM and compared to growth in media with an equivalent percentage of DMSO. […] All growth curves were repeated at least twice and analyzed in GraphPad Prism 10.0 software. […] The cultures were incubated overnight at 37°C, 5% CO2 before their optical density was read. The EC50 of the antibiotics against the bacteria in the presence or absence of N34 were determined by fitting the normalized data into a four-parameter logistic model in GraphPad Prism 10.0 software.
# [3] = tested on: S. aureus biofilm formation; experiment: Crystal violet biofilm inhibition assay; format: cell-based, Staphylococcus aureus; conditions: fphH or fphE transposon mutant
# Experimental: Overnight cultures of S. aureus (wild-type, transposon mutants and complemented) strains (Table S3) grown in TSB, were subcultured on fresh TSB and grown to OD600 of 0.5. Biofilms were cultured in 96 well plates by transferring 1 μL of the culture to 200 μL of TSB plus 1% glucose with or without the inhibitors and incubated for 16 hours at 37°C without agitation. The inhibitor concentrations ranged from 1, 5, 10, 50 and 100 μM final concentration. Equal volume of DMSO was added as control. The wells were washed to remove the planktonic cells and the plates air-dried before staining with 200μL of 0.1% w/v crystal violet for 10 minutes at room temperature. The wells were washed to remove excess dye and blotted to dry. Each well was filled with 200μL of DMSO for 10 minutes at room temperature to dissolve the dye. The absorbance was measured at 590 nm using Spark multimode microplate reader (TECAN). The data represents n = 3 independent experiments and are expressed as a percentage of the uninhibited wild-type bacteria. All the data are normalized such that 100% represent untreated WT S. aureus. P values were determined using ordinary one-way ANOVA multiple comparisons GraphPad Prism 10.0 software. *P < 0.05, **P < 0.01, ***P < 0.001 and ****P < 0.0001.
# [4] = target: T2, rFphH (Staphylococcus aureus, UniProt A0A0H2XJL0); experiment: FP-Cy5 active site labeling of recombinant protein, rFphH; format: binding; conditions: recombinant protein
# T2 construct: otherwise full-length FphE (Uniprot ID Q2FDS6) and FphH (A0A0H2XJL0) proteins; His6 (3C-cleavable, pETNKI-his-3C-LIC vector) (N); made in house; E. coli is inferred from the pET28a-type vector, IPTG induction and LB/kanamycin
# T2 sequence (A0A0H2XJL0 1-246): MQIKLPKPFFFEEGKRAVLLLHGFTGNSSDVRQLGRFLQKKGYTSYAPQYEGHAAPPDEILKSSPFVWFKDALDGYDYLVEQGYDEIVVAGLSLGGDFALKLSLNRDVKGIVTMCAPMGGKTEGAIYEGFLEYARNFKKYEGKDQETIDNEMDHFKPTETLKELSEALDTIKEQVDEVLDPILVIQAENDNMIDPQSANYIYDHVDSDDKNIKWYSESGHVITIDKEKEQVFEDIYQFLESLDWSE
# Experimental: as §1
smiles,measurement,setting,value
"OB(O)c1csc2ccccc12 [Z27, Benzo[b]thiophen-3-ylboronic acid]",concentration inhibiting FP-Cy5 labeling of rFphE,[1],> 50 µM
same,growth defect (in words),[2],no significant growth defect
same,effect on biofilm formation in transposon mutants (in words),[3],further reduced by the inhibitor Z27 only at the highest concentrations used (50 and 100 μM)
same,concentration inhibiting FP-Cy5 labeling of rFphH,[4],> 50 µM
